Experimental data reported in US9815796B2 (Merck Sharp & Dohme Corp., priority 2013, dated 2017).

Target: human PDE2A1 (Homo sapiens (Human), UniProt O00408)
Test: IMAP FP PDE selectivity panel, human PDE2A1
Format: biochemical
Conditions: Human PDE2, Lab B; read-out: Human PDE2 Ki (nM) - Lab B
How it was run: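 IMAP FP format: substrate 50 nM FAM-cAMP plus 1000 nM cGMP, enzyme (insect-cell GST-tagged human PDE2A1) at ~20% conversion, 60 min reaction at room temperature. Apparent inhibition constants calculated from parallel/perpendicular fluorescence with KM 10,000 nM.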

Chain of human PDE2A1 (O00408 other isoform, or with tags, fused parts or gaps): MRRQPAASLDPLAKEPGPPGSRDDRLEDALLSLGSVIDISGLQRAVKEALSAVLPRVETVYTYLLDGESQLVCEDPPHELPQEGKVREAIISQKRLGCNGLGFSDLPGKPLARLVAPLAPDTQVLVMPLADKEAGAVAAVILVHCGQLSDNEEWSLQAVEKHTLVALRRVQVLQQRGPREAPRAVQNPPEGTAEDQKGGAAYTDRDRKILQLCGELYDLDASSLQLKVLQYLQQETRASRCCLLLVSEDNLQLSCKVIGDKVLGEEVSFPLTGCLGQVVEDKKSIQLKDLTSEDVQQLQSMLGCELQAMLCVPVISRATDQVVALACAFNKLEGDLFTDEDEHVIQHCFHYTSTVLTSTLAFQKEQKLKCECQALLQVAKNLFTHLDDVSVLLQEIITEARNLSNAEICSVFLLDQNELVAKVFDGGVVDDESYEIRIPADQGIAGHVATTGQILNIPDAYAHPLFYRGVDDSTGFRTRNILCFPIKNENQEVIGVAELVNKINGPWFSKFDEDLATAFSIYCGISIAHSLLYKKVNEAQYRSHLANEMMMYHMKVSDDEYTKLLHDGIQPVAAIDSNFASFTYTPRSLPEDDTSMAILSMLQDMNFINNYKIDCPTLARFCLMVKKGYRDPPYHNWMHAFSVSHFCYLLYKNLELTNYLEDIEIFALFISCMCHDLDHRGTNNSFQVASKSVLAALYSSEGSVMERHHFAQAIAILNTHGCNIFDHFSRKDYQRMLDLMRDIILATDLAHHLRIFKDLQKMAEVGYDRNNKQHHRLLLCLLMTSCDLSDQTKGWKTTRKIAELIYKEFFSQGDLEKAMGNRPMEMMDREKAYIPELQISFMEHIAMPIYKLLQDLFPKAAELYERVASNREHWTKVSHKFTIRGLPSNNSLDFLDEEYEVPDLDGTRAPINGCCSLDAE

Ki [nM] | SMILES
39 | CC1([C@@H](NC(=O)c2cc(=O)[nH]c(-c3ncccn3)n2)c2ccc3c(c2)OC(F)(F)O3)CC1 [Example 585, N-[(R)-(2,2-difluoro-1,3-benzodioxol-5-yl)(1-methylcyclopropyl)methyl]-6-oxo-1,6-dihydro-2,2′-bipyrimidine-4-carboxamide]
14 | Cc1nc(C(=O)N[C@]2(c3ccc(C(F)(F)F)cc3)C[C@@H]2C)cc(=O)[nH]1 (single isomer, unassigned) [Example 671, 2-methyl-N-{2-methyl-1-[4-(trifluoromethyl)phenyl)cyclopropyl}-6-oxo-1,6-dihydropyrimidine-4-carboxamide]
13 | Cc1nc(C(=O)N[C@@H](c2ccc(OC(F)F)c(F)c2)C2(C)CC2)cc(=O)[nH]1 [Example 631, N-[(R)-[4-(difluoromethoxy)-3-fluorophenyl](1-methylcyclopropyl)methyl]-2-methyl-6-oxo-1,6-dihydropyrimidine-4-carboxamide]
17 | Cc1nc(C(=O)N[C@@H](c2ccc(OC(F)F)c(F)c2)C(C)C)cc(=O)[nH]1 [Example 624, N-{(1R)-1-[4-(difluoromethoxy)-3-fluorophenyl]-2-methylpropyl}-2-methyl-6-oxo-1,6-dihydropyrimidine-4-carboxamide]
106 | CC[C@@H](NC(=O)c1cc(=O)[nH]c(C)n1)c1ccc2c(c1)OC(F)(F)O2 [Example 632, N-[(1R)-1-(2,2-difluoro-1,3-benzodioxol-5-yl)propyl]-2-methyl-6-oxo-1,6-dihydropyrimidine-4-carboxamide]
4.8 | C[C@](CO)(NC(=O)c1cc(=O)[nH]c(-c2ccccc2)n1)c1ccc(C(F)(F)F)cc1 [Example 642, N-{(1S)-2-hydroxy-1-methyl-1-[4-(trifluoromethyl)phenyl]ethyl}-6-oxo-2-phenyl-1,6-dihydropyrimidine-4-carboxamide]
3.8 | O=C(N[C@@H](c1ccc(C2CC2)c(F)c1)C1CC1)c1cc(=O)[nH]c(-c2ccccc2)n1 [Example 546, N-[(R)-cyclopropyl(4-cyclopropyl-3-fluorophenyl)methyl]-6-oxo-2-phenyl-1,6-dihydropyrimidine-4-carboxamide]
0.5 | C[C@](CO)(NC(=O)c1cc(=O)[nH]c(-c2ccccc2)n1)c1ccc(C(F)(F)F)cc1Cl [Example 643, N-{(1S)-1-[2-chloro-4-(trifluoromethyl)phenyl]-2-hydroxy-1-methylethyl}-6-oxo-2-phenyl-1,6-dihydropyrimidine-4-carboxamide]
96 | CC(C)(NC(=O)c1cc(=O)[nH]c(-c2ncccn2)n1)c1ccc(C(F)(F)F)cc1Cl [Example 568, N-{1-[2-chloro-4-(trifluoromethyl)phenyl]-1-methylethyl}-6-oxo-1,6-dihydro-2,2′-bipyrimidine-4-carboxamide]
94 | Cc1nc(C(=O)N[C@@H](c2ccc3c(c2)OC(F)(F)O3)C2CC2)cc(=O)[nH]1 [Example 609, N-[(R)-cyclopropyl(2,2-difluoro-1,3-benzodioxol-5-yl)methyl]-2-methyl-6-oxo-1,6-dihydropyrimidine-4-carboxamide]
10 | CC1([C@@H](NC(=O)c2cc(=O)[nH]c(-c3ncccn3)n2)c2ccc(C(F)(F)F)cc2)CC1 [Example 582, N-{(R)-(1-methylcyclopropyl)[4-(trifluoromethyl)phenyl]methyl}-6-oxo-1,6-dihydro-2,2′-bipyrimidine-4-carboxamide]
202 | CC(C)C(C)(NC(=O)c1cc(=O)[nH]c(-c2ncccn2)n1)c1ccc(S(F)(F)(F)(F)F)cc1 (stereo not shown) [Example 561, N-{1,2-dimethyl-1-[4-(pentafluoro-λ^6-sulfanyl)phenyl]propyl}-6-oxo-1,6-dihydro-2,2′-bipyrimidine-4-carboxamide]
7 | CC(C)(C)[C@@H](NC(=O)c1cc(=O)[nH]c(-c2ncccn2)n1)c1ccc(C(F)(F)F)cc1F [Example 565, N-{(1R)-1-[2-fluoro-4-(trifluoromethyl)phenyl]-2,2-dimethylpropyl}-6-oxo-1,6-dihydro-2,2′-bipyrimidine-4-carboxamide]
19 | Cc1nc(C(=O)N[C@](C)(CO)c2ccc(C(F)(F)F)cc2)cc(=O)[nH]1 [Example 636, N-{(1S)-2-hydroxy-1-methyl-1-[4-(trifluoromethyl)phenyl]ethyl}-2-methyl-6-oxo-1,6-dihydropyrimidine-4-carboxamide]
4.5 | CC1([C@@H](NC(=O)c2cc(=O)[nH]c(-c3ccccc3)n2)c2ccc(S(F)(F)(F)(F)F)cc2)CC1 [Example 549, N-{(R)-(1-methylcyclopropyl)[4-(pentafluoro-λ^6-sulfanyl)phenyl]methyl}-6-oxo-2-phenyl-1,6-dihydropyrimidine-4-carboxamide]
103 | CC(NC(=O)c1cc(=O)[nH]c(-c2ccccc2)n1)c1ccc(C(C)(C)C(F)(F)F)cc1 (single isomer, unassigned) [Example 699, (R)- or (S)-6-oxo-2-phenyl-N-(1-(4-(1,1,1-trifluoro-2-methylpropan-2-yl)phenyl)ethyl)-1,6-dihydropyrimidine-4-carboxamide]

Ki [nM] | SMILES
8.9 | CC(C)(C)[C@@H](NC(=O)c1cc(=O)[nH]c(-c2ncccn2)n1)c1ccc(C2CC2)cc1 [Example 557, N-[(1R)-1-(4-cyclopropylphenyl)-2,2-dimethylpropyl]-6-oxo-1,6-dihydro-2,2′-bipyrimidine-4-carboxamide]
13 | O=C(N[C@@H](c1ccc(C2CC2)c(F)c1)C1CC1)c1cc(=O)[nH]c(-c2ncccn2)n1 [Example 581, N-[(R)-cyclopropyl(4-cyclopropyl-3-fluorophenyl)methyl]-6-oxo-1,6-dihydro-2,2′-bipyrimidine-4-carboxamide]
138 | CC[C@@H](NC(=O)c1cc(=O)[nH]c(C)n1)c1ccc(C(F)F)cc1 [Example 652, N-{(1R)-1-[4-(difluoromethyl)phenyl]propyl}-2-methyl-6-oxo-1,6-dihydropyrimidine-4-carboxamide]
741 | COc1cc(C(F)(F)F)ccc1C(C)(C)NC(=O)c1cc(=O)[nH]c(-c2ncccn2)n1 [Example 572, N-{1-[2-methoxy-4-(trifluoromethyl)phenyl]-1-methylethyl}-6-oxo-1,6-dihydro-2,2′-bipyrimidine-4-carboxamide]
104 | O=C(NC1(c2ccc(CC(F)(F)F)cc2)CC1)c1cc(=O)[nH]c(-c2ncccn2)n1 [Example 578, 6-oxo-N-{1-[4-(2,2,2-trifluoroethyl)phenyl]cyclopropyl}-1,6-dihydro-2,2′-bipyrimidine-4-carboxamide]
25 | Cc1nc(C(=O)N[C@@H](c2ccc(C(F)F)cc2)C2(C)CC2)cc(=O)[nH]1 [Example 645, N-[(R)-[4-(difluoromethyl)phenyl](1-methylcyclopropyl)methyl]-2-methyl-6-oxo-1,6-dihydropyrimidine-4-carboxamide]
35 | CC(C)(C)[C@@H](NC(=O)c1cc(=O)[nH]c(-c2ncccn2)n1)c1ccc(CC(F)(F)F)cc1 [Example 558, N-[(1R)-2,2-dimethyl-1-[4-(2,2,2-trifluoroethyl)phenyl]propyl}-6-oxo-1,6-dihydro-2,2′-bipyrimidine-4-carboxamide]
108 | Cc1nc(C(=O)NC(C)c2ccc(C3(C(F)(F)F)CC3)cc2)cc(=O)[nH]1 (single isomer, unassigned) [Example 687, (R)- or (S)-2-methyl-6-oxo-N-(1-(4-(1-(trifluoromethyl)cyclopropyl)phenyl)-ethyl)-1,6-dihydropyrimidine-4-carboxamide]
36 | CC1([C@@H](NC(=O)c2cc(=O)[nH]c(-c3ncccn3)n2)c2ccc(OC(F)F)cc2)CC1 [Example 584, N-[(R)-[4-(difluoromethoxy)phenyl](1-methylcyclopropyl)methyl]-6-oxo-1,6-dihydro-2,2′-bipyrimidine-4-carboxamide]
67 | CC(NC(=O)c1cc(=O)[nH]c(C2CC2)n1)c1ccc(C2(C(F)(F)F)CC2)cc1 (single isomer, unassigned) [Example 689, (R)- or (S)-2-cyclopropyl-6-oxo-N-(1-(4-(1-(trifluoromethyl)cyclopropyl)phenyl)-ethyl)-1,6-dihydropyrimidine-4-carboxamide]
32 | Cc1nc(C(=O)NC(C)(C)c2ccc(C(F)(F)F)c(Cl)c2)cc(=O)[nH]1 [Example 641, N-{1-[3-chloro-4-(trifluoromethyl)phenyl]-1-methylethyl}-2-methyl-6-oxo-1,6-dihydropyrimidine-4-carboxamide]
71 | O=C(NC1(c2ccc3c(c2)OC(F)(F)O3)CC1)c1cc(=O)[nH]c(-c2ncccn2)n1 [Example 571, N-[1-(2,2-difluoro-1,3-benzodioxol-5-yl)cyclopropyl]-6-oxo-1,6-dihydro-2,2′-bipyrimidine-4-carboxamide]
~1820 | CC1(c2ccc(C(NC(=O)c3cc(=O)[nH]c(-c4ccccc4)n3)C(C)(C)C)cc2F)CC1 (single isomer, unassigned) [Example 714, (S)- or (R)-N-(1-(3-fluoro-4-(1-methylcyclopropyl)phenyl)-2,2-dimethylpropyl)-6-oxo-2-phenyl-1,6-dihydropyrimidine-4-carboxamide]
1.5 | CC1(c2ccc(C(NC(=O)c3cc(=O)[nH]c(C4CC4)n3)C(C)(C)C)cc2F)CC1 (single isomer, unassigned) [Example 713, (R)- or (S)-2-cyclopropyl-N-(1-(3-fluoro-4-(1-methylcyclopropyl)phenyl)-2,2-dimethylpropyl)-6-oxo-1,6-dihydropyrimidine-4-carboxamide]
8.6 | Cc1nc(C(=O)N[C@@H](c2ccc(C(F)(F)F)c(F)c2)C(C)(C)O)cc(=O)[nH]1 [Example 723, N-{(1S)-1-[3-fluoro-4-(trifluoromethyl)phenyl]-2-hydroxy-2-methylpropyl}-2-methyl-6-oxo-1,6-dihydropyrimidine-4-carboxamide]
